Experimental data from patent US10934297B2, “5-heteroaryl substituted indazole-3-carboxamides and preparation and use thereof” (Samumed, LLC, priority 2018, dated 2021).

Key:
GSK3β kinase = GSK3β kinase (Homo sapiens (Human), UniProt P49841); experiment: GSK3β kinase assay (Ser/Thr 09 peptide Z-lyte FRET); type: biochemical; details: read-out: EC50 (method: IC50)
How it was run: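 Non-radioactive Z-lyte FRET read-out, kinase activity expressed as coumarin/fluorescein emission ratio. Compounds incubated with the reaction mixture one hour at room temperature in duplicate, then development buffer added for another hour. IC50 from non-linear regression of dose-response curves.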

[1] = test system: Wnt activity (Sp5-Luc reporter in SW480 cells); experiment: Screening assay for Wnt activity: Sp5-Luc reporter gene assay in SW480 colon carcinoma cells; type: cell-based, human; details: Homo sapiens, 36 to 48 hours
How it was run: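 SW480 colon carcinoma cells stably carrying a lentiviral luciferase reporter driven by an Sp5 promoter with eight TCF/LEF sites, plated at 4,000 cells/well in DMEM with 1% FBS. Compound exposure for 36–48 h at 37 °C, then luminescence read. Signals normalized to DMSO; EC50 from four-parameter nonlinear fit.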

[2] = test system: primary human fibroblasts derived from IPF patients (LL29 cells); experiment: Inhibition of the fibrotic process: αSMA staining in TGF-β1 treated LL29 fibroblasts; type: cell-based; details: Homo sapiens, Fibroblast, 96 h; LL29 cells, TGF-β1 20 ng/mL, 4 days, % αSMA positive cells
How it was run: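 LL29 fibroblasts from IPF patients, in F12 medium with 1% FBS, treated with TGF-β1 plus compound; TGF-β1 with DMSO as positive control, DMSO alone as negative control. After 4 days' incubation, SYTOX green nucleic acid stain added at 1 μM final, 30 min at room temperature.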

IL-6 = IL-6 inhibition in LPS-stimulated human peripheral blood mononuclear cells (HTRF); type: cell-based; details: Homo sapiens, PBMC; for EC50: huPBMCs, LPS 50 ng/mL, 22 hours, IL-6 HTRF; for inhibition at 10 µM: read-out: percent inhibition at 10 μM
How it was run: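 Fresh human PBMCs at 1×10e6 cells/mL in RPMI/1% FBS were stimulated with 50 ng/mL E. coli 0111:B4 LPS added 2 h after compound, then incubated 22 h at 37° C. Secreted IL-6 was measured by HTRF (665/620 nm ratio) after 3 h at room temperature. EC50 was taken from activity normalized to DMSO-treated cells.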

DYRK1A kinase = DYRK1A kinase (Homo sapiens (Human), UniProt Q13627); experiment: DYRK1A kinase assay (Ser/Thr 18 peptide Z-lyte FRET); type: biochemical; details: read-out: EC50 (method: IC50)
How it was run: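 This Z-lyte FRET assay reads the coumarin/fluorescein emission ratio. Compounds were incubated with the reaction mixture for 1 h at room temperature, followed by development reagent for a further 1 h at room temperature, in duplicate.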

[3] = test system: SW480 colon carcinoma cells; experiment: Cell viability assay (CellTiter-Glo) in SW480 colon carcinoma cells; type: cell-based, human; details: Homo sapiens, 96 h, four days
How it was run: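 SW480 cells stably carrying an Sp5-promoter luciferase reporter were plated at 2,000 cells/well in DMEM with 1% FBS and treated with compound for four days at 37 °C. Viability was read as ATP luminescence with CellTiter-Glo after about 12 min; DMSO-treated wells served as controls.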

GSK3β kinase, sequence (P49841 whole entry): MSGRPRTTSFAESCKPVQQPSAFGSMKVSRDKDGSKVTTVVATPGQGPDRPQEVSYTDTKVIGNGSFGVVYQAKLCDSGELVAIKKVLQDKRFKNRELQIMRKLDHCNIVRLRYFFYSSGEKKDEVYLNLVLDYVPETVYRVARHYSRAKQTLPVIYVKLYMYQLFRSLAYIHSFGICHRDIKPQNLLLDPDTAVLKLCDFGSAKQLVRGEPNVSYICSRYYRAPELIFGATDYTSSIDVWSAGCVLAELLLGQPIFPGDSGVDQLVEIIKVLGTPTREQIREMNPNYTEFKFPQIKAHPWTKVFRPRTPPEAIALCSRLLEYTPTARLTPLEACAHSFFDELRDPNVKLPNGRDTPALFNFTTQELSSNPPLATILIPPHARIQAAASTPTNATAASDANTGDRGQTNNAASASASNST

| Compound | IC50 (GSK3β kinase) [nM] | EC50 [1] [nM] | EC50 (IL-6) [nM] | IC50 (DYRK1A kinase) [nM] | EC50 [3] [nM] | EC50 [2] [nM] | inhibition at 10 µM (IL-6) [%] |
| --- | --- | --- | --- | --- | --- | --- | --- |
| CN1CCN(Cc2ccc(NC(=O)c3n[nH]c4cc(F)c(-c5cnn(C)c5)cc34)cc2)CC1 [Compound 78, 6-Fluoro-5-(1-methyl-1H-pyrazol-4-yl)-N-(4-((4-methylpiperazin-1-yl)methyl)phenyl)-1H-indazole-3-carboxamide] | 18 | 249 | 1140 | 1 | 454 | 545 |  |
| CN1CCC(Oc2ccc(NC(=O)c3n[nH]c4cc(F)c(-c5cnn(C)c5)cc34)cc2)CC1 [Compound 79, 6-Fluoro-5-(1-methyl-1H-pyrazol-4-yl)-N-(4-((1-methylpiperidin-4-yl)oxy)phenyl)-1H-indazole-3-carboxamide] | 60 | 266 | 1760 | 2 | 140 | 61 |  |
| CN1CCC(Oc2ccc(NC(=O)c3n[nH]c4cc(F)c(-c5cnn(C(F)F)c5)cc34)cc2)CC1 [Compound 80, 5-(1-(Difluoromethyl)-1H-pyrazol-4-yl)-6-fluoro-N-(4-((1-methylpiperidin-4-yl)oxy)phenyl)-1H-indazole-3-carboxamide] | 783 | 8520 | 3440 | 19 | 5000 | 1300 |  |
| Cc1c(-c2cc3c(C(=O)Nc4ccc(OC5CCN(C)CC5)cc4)n[nH]c3cc2F)cnn1C [Compound 81, 5-(1,5-Dimethyl-1H-pyrazol-4-yl)-6-fluoro-N-(4-((1-methylpiperidin-4-yl)oxy)phenyl)-1H-indazole-3-carboxamide] | 35 | 115 | 1060 | 1 | 139 | 341 |  |
| CN1CCC(Nc2ccc(NC(=O)c3n[nH]c4cc(F)c(-c5cnn(C)c5)cc34)cc2)CC1 [Compound 83, 6-Fluoro-5-(1-methyl-1H-pyrazol-4-yl)-N-(4-((1-methylpiperidin-4-yl)amino)phenyl)-1H-indazole-3-carboxamide] | 74 | 275 | 1240 | 2 | 220 | 250 |  |
| CN1Cc2ccc(NC(=O)c3n[nH]c4cc(F)c(-c5cnn(C)c5)cc34)cc2C1 [Compound 85, 6-Fluoro-5-(1-methyl-1H-pyrazol-4-yl)-N-(2-methylisoindolin-5-yl)-1H-indazole-3-carboxamide] | 35 | 566 | 2990 | 2 | 203 | 904 |  |
| O=C(Nc1ccc(OC(F)F)nc1)c1n[nH]c2ccc(-c3cnn(C4CNC4)c3)cc12 [Compound 86, 5-(1-(Azetidin-3-yl)-1H-pyrazol-4-yl)-N-(6-(difluoromethoxy)pyridin-3-yl)-1H-indazole-3-carboxamide] | 354 | 1840 | > 10000 | 98 | > 10000 | 1190 | 14.8 |
| O=C(Nc1ccc(N2CCCC2)nc1)c1n[nH]c2ccc(-c3cnn(C4CC4)c3)cc12 [Compound 91, 5-(1-Cyclopropyl-1H-pyrazol-4-yl)-N-(6-(pyrrolidin-1-yl)pyridin-3-yl)-1H-indazole-3-carboxamide] | 332 | 1130 | > 10000 | 50 | 2100 | 1490 | 53.6 |
| O=C(Nc1ccc(N2CCCC2)nc1)c1n[nH]c2ccc(-c3cnn(C4CCNCC4)c3)cc12 [Compound 93, 5-(1-(Piperidin-4-yl)-1H-pyrazol-4-yl)-N-(6-(pyrrolidin-1-yl)pyridin-3-yl)-1H-indazole-3-carboxamide] | 430 | 1590 | > 10000 | 6 | 823 | 1200 | 5.5 |
| O=C(Nc1ccc(N2CCCC2)nc1)c1n[nH]c2cc(F)c(-c3cnn(C4CCNCC4)c3)cc12 [Compound 94, 6-Fluoro-5-(1-(piperidin-4-yl)-1H-pyrazol-4-yl)-N-(6-(pyrrolidin-1-yl)pyridin-3-yl)-1H-indazole-3-carboxamide] | 272 | 798 | > 10000 | 4 | 732 | 1380 | 5 |
| Cc1ncc(NC(=O)c2n[nH]c3ccc(-c4cnn(C5CCNCC5)c4)cc23)s1 [Compound 97, N-(2-Methylthiazol-5-yl)-5-(1-(piperidin-4-yl)-1H-pyrazol-4-yl)-1H-indazole-3-carboxamide] | 98 | 269 | 2280 | 2 | 354 | 291 |  |

More lines, in order of falling IC50 (GSK3β kinase), values ahead:

| IC50 (GSK3β kinase) [nM] | EC50 [1] [nM] | EC50 (IL-6) [nM] | IC50 (DYRK1A kinase) [nM] | EC50 [3] [nM] | Compound | EC50 [2] [nM] | inhibition at 10 µM (IL-6) [%] |
| --- | --- | --- | --- | --- | --- | --- | --- |
| 699 | 2310 | > 10000 | 39 | > 10000 | O=C(Nc1ccc(N2CCCC2)nc1)c1n[nH]c2cc(F)c(-c3cnn(C4CC4)c3)cc12 [Compound 92, 5-(1-Cyclopropyl-1H-pyrazol-4-yl)-6-fluoro-N-(6-(pyrrolidin-1-yl)pyridin-3-yl)-1H-indazole-3-carboxamide] | 313 | 0 |
| 656 | 4340 | 6590 | 304 | 4600 | O=C(Nc1ccc(OC(F)F)nc1)c1n[nH]c2ccc(-c3cnn(CCN4CCCC4)c3)cc12 [Compound 89, N-(6-(Difluoromethoxy)pyridin-3-yl)-5-(1-(2-(pyrrolidin-1-yl)ethyl)-1H-pyrazol-4-yl)-1H-indazole-3-carboxamide] | 1200 |  |
| 403 | 2130 | > 10000 | 329 | 7390 | O=C(Nc1ccc(OC(F)F)nc1)c1n[nH]c2ccc(-c3cnn(CCN4CCOCC4)c3)cc12 [Compound 90, N-(6-(Difluoromethoxy)pyridin-3-yl)-5-(1-(2-morpholinoethyl)-1H-pyrazol-4-yl)-1H-indazole-3-carboxamide] | > 10000 | 37 |
| 46 | 175 | 1000 | 1 | 286 | CN1CCN(c2ccc(NC(=O)c3n[nH]c4cc(F)c(-c5cnn(C)c5)cc34)cn2)CC1 [Compound 95, 6-Fluoro-5-(1-methyl-1H-pyrazol-4-yl)-N-(6-(4-methylpiperazin-1-yl)pyridin-3-yl)-1H-indazole-3-carboxamide] | 195 |  |
| 30 | 165 | 1210 | 1 | 118 | CN1CCC(Oc2ccc(NC(=O)c3n[nH]c4cc(F)c(-c5cnn(C)c5)cc34)cn2)CC1 [Compound 96, 6-Fluoro-5-(1-methyl-1H-pyrazol-4-yl)-N-(6-((1-methylpiperidin-4-yl)oxy)pyridin-3-yl)-1H-indazole-3-carboxamide] | 367 |  |
| 21 | 1340 | > 10000 | 2 | 300 | Cn1cc(-c2cc3c(C(=O)Nc4ccc5c(c4)CNC5)n[nH]c3cc2F)cn1 [Compound 84, 6-Fluoro-N-(isoindolin-5-yl)-5-(1-methyl-1H-pyrazol-4-yl)-1H-indazole-3-carboxamide] | 1690 | 2.1 |
